By MIC is commonly meant the smallest concentration in the dilution series that meets the test's criterion for growth inhibition.

The values that follow come from ChEMBL document CHEMBL4842307, “Targeted Isolation of Saalfelduracin B-D from Amycolatopsis saalfeldensis Using LC-MS/MS-Based Molecular Networking” (2021).

Holding throughout (assay type): functional
Test [1] has as its system Escherichia coli. The test is described as follows: Antimicrobial activity against Escherichia coli ATCC35218 assessed as growth inhibition after 24 hrs by microdilution assay. Background: Dilution methods test growth across graded concentrations, often in twofold steps.
Test [2] concerns Staphylococcus aureus. The test is described as follows: Antimicrobial activity against Staphylococcus aureus ATCC12715 assessed as growth inhibition after 24 hrs by microdilution assay.
Test [3] relates to Staphylococcus epidermidis. The test is described as follows: Antimicrobial activity against Staphylococcus epidermis CCM628 assessed as growth inhibition after 24 hrs by microdilution assay.
For test [4], the system named is Bacillus subtilis. The test is described as follows: Antimicrobial activity against Bacillus subtilis ATCC9372 assessed as growth inhibition after 24 hrs by microdilution assay.
For test [5], the system named is Candida albicans. Put plainly: Antimicrobial activity against Candida albicans SC5314 assessed as growth inhibition after 24 hrs by microdilution assay.

Values after ≈ are worked out from the molar mass of the structure shown.

Consider `C=C(NC(=O)C(=C)NC(=O)c1csc([C@H]2CC[C@]34NC(=O)C(=C)NC(=O)C(=C)NC(=O)C(=C)NC(=O)[C@H](C)N[C@@H]5C=Cc6c([C@H](C)O)cc(nc6[C@H]5O)C(=O)O[C@H](C)[C@H](NC(=O)c5csc(n5)[C@H]([C@@](C)(O)[C@H](C)O)NC(=O)[C@H]5CSC(=N5)/C(=C/C)NC(=O)[C@H]([C@@H](C)O)NC(=O)c5csc3n5)c3nc(cs3)[C@H]4N2)n1)C(=O)O`, for which the MIC in test [1] is greater than 64 µg/mL; in test [2], 8 µg/mL (≈ 4.93 µM); in test [3] it was 2 µg/mL (≈ 1.23 µM); in test [4], 8 µg/mL (≈ 4.93 µM); in test [5], greater than 64 µg/mL.

As for `O=C(O)c1cn(C2CC2)c2cc(N3CCNCC3)c(F)cc2c1=O` [CIPROFLOXACIN], the minimum inhibitory concentration (MIC) was less than 0.01 µg/mL in test [1]; 0.06 µg/mL (≈ 0.181 µM) in test [2]; 0.06 µg/mL (≈ 0.181 µM) in test [3]; 0.06 µg/mL (≈ 0.181 µM) in test [4]; greater than 64 µg/mL in test [5].

Regarding `C=C1NC(=O)C(=C)NC(=O)[C@H](C)N[C@@H]2C=Cc3c([C@H](C)O)cc(nc3[C@H]2O)C(=O)O[C@H](C)[C@@H]2NC(=S)c3csc(n3)[C@H]([C@@](C)(O)[C@H](C)O)NC(=O)[C@H]3CSC(=N3)/C(=C/C)NC(=O)[C@H]([C@@H](C)O)NC(=O)c3csc(n3)[C@]3(CC[C@H](c4nc(C(N)=O)cs4)N[C@@H]3c3csc2n3)NC(=O)C(=C)NC1=O`, the MIC was greater than 64 µg/mL in test [1]; 1 µg/mL (≈ 0.667 µM) in test [2]; 0.5 µg/mL (≈ 0.334 µM) in test [3]; 1 µg/mL (≈ 0.667 µM) in test [4]; greater than 64 µg/mL in test [5].

Regarding `C[C@@H]1[C@H](O)[C@@H](C)/C=C/C=C/C=C/C=C/C=C/C=C/C=C/[C@H](O[C@@H]2O[C@H](C)[C@@H](O)[C@H](N)[C@@H]2O)C[C@@H]2O[C@](O)(C[C@@H](O)C[C@@H](O)[C@H](O)CC[C@@H](O)C[C@@H](O)CC(=O)O[C@H]1C)C[C@H](O)[C@H]2C(=O)O` [AMPHOTERICIN B], the MIC was greater than 64 µg/mL in test [1]; greater than 64 µg/mL in test [2]; greater than 64 µg/mL in test [3]; greater than 64 µg/mL in test [4]; 0.25 µg/mL (≈ 0.271 µM) in test [5].

As for `C=C(NC(=O)c1csc([C@H]2CC[C@]34NC(=O)C(=C)NC(=O)C(=C)NC(=O)C(=C)NC(=O)[C@H](C)N[C@@H]5C=Cc6c([C@H](C)O)cc(nc6[C@H]5O)C(=O)O[C@H](C)[C@H](NC(=S)c5csc(n5)[C@H]([C@@](C)(O)[C@H](C)O)NC(=O)[C@H]5CSC(=N5)/C(=C/C)NC(=O)[C@H]([C@@H](C)O)NC(=O)c5csc3n5)c3nc(cs3)[C@H]4N2)n1)C(N)=O`, the MIC in test [1] was greater than 64 µg/mL; in test [2], 2 µg/mL (≈ 1.28 µM); in test [3], 0.5 µg/mL (≈ 0.319 µM); in test [4], 1 µg/mL (≈ 0.638 µM); in test [5], greater than 64 µg/mL.

Consider `C=C(NC(=O)C(=C)NC(=O)c1csc([C@H]2CC[C@]34NC(=O)C(=C)NC(=O)C(=C)NC(=O)C(=C)NC(=O)[C@H](C)N[C@@H]5C=Cc6c([C@H](C)O)cc(nc6[C@H]5O)C(=O)O[C@H](C)[C@H](NC(=S)c5csc(n5)[C@H]([C@@](C)(O)[C@H](C)O)NC(=O)[C@H]5CSC(=N5)/C(=C/C)NC(=O)[C@H]([C@@H](C)O)NC(=O)c5csc3n5)c3nc(cs3)[C@H]4N2)n1)C(=O)O`, for which the MIC in test [1] is greater than 64 µg/mL; in test [2] it was 0.5 µg/mL (≈ 0.305 µM); in test [3] it was 0.25 µg/mL (≈ 0.153 µM); in test [4], 0.25 µg/mL (≈ 0.153 µM); in test [5] it was greater than 64 µg/mL.

In the case of `C=C(NC(=O)C(=C)NC(=O)c1csc(C2=N[C@@H]3c4csc(n4)[C@H]4NC(=O)c5csc(n5)[C@H]([C@@](C)(O)[C@H](C)O)NC(=O)[C@H]5CSC(=N5)/C(=C/C)NC(=O)[C@H]([C@@H](C)O)NC(=O)c5csc(n5)[C@]3(CC2)NC(=O)[C@H](C)NC(=O)C(=C)NC(=O)[C@H](C)NC(=O)[C@H]([C@@H](C)CC)N[C@@H]2C=Cc3c([C@H](C)O)cc(nc3[C@H]2O)C(=O)O[C@@H]4C)n1)C(N)=O`, the MIC was greater than 64 µg/mL in test [1]; 0.06 µg/mL (≈ 0.036 µM) in test [2]; less than 0.01 µg/mL in test [3]; 0.06 µg/mL (≈ 0.036 µM) in test [4]; greater than 64 µg/mL in test [5].
